Experimental data as given in patent US20110092521A1, “Methods of Treating Diseases Using Inhibitors of Nucleoside Phosphorylases and Nucleosidases” (priority 2006, published 2011).
“Also recorded” adds a separate entry of the source. Blank lines part the entries; values can stand above or below the molecule they belong to.

What was measured:
[1] = test system: TRAMP (transgenic adenocarcinoma of mouse prostate) mice; test: Treatment of TRAMP mice (tumour mass, histology, MRI); format: in vivo; details: for prostate cancer progression in the TRAMP mouse model: administered either alone or in combination with MTA
Procedure: MRI experiments were performed using a 9.4 T 21 cm bore horizontal bore magnet (Magnex Scientific) Varian INOVA MRI system (Fremont, Calif.) equipped with a 28 mm inner diameter quadrature birdcage coil. Mice were anesthetized with isoflurane inhalation anesthesia (1-1.5% in 100% O2 administered via a nose cone) and positioned in the MRI coil. Body temperature was maintained (37-38° C.) using a homeothermic warming system. After acquiring scout images, multi-slice spin-echo imaging with an echo time of 18 ms and a repetition time of 400 ms ms was performed. A 40 mm field of view with a 256×256 matrix size was used. Nine to 15 slices along the transverse, sagittal, and coronal planes were acquired in each multi-slice experiment with a slice thickness of 1 mm and the gap between slices of 0.5 mm. MRI data were processed off-line with MATLAB-based MRI analysis software.
Long-Term: Sterile solutions of 100 μM compound (2) (pH ˜6.4). Water bottles were autoclaved prior to filling with sterile inhibitor solutions. Water consumption was monitored every other day, with fresh inhibitor solution being administered to prevent bacterial growth. Mice were control-sacrificed and tissues (genitourinary system, liver, lungs) were collected for histology and polyamine analysis. Mass and dimensions of excised genitourinary system tumours were recorded. Sections of small intestine were also removed for toxicity analysis via H&E staining.

[2] = test system: FaDu xenografts; test: FaDu xenograft studies in NOD-SCID mice; format: in vivo, mouse
Procedure: NOD-SCID mice (6-8 weeks old) were obtained from Jackson Laboratory (Bar Harbor, Me.). FaDu cells (10^6) were inoculated into the dorsum of the hind foot. After 5 days, mice were treated with 9 mg/kg or 21 mg/kg body weight of compound (2) in drinking water or by daily i.p. injections of 5 mg/kg body weight of compound (2). After inoculation mice were assigned to treatment or control groups (n=5). Tumor volume (V) was determined from: V=(4/3)*(22/7)*1/8*(length*width*height). Differences between treatment cohorts were determined using the Student's t test Mice were weighed every 4-5 days, monitored for hair loss, loss of appetite, vomiting and diarrhoea. Total and differential blood and bone marrow analyses were performed after treatment with compound (2).

SMILES: CSC[C@H]1N[C@@H](c2c[nH]c3c(N)ncnc23)C(O)C1O (stereo partly drawn) [compound (3)]
prostate cancer progression in the TRAMP mouse model [1]: inhibits prostate cancer progression

differences in animal weight or in total and differential blood counts between treatment and control groups ([2]; NOD-SCID mice with FaDu tumors, after 28 days of therapy): No significant differences
SMILES: CSC[C@H]1CN(Cc2c[nH]c3c(N)ncnc23)C[C@@H]1O [compound (2), (3R,4S)-1-[(9-deazaadenin-9-yl)methyl]-3-hydroxy-4-(methylthiomethyl)pyrrolidine]
tumour growth and metastasis in TRAMP mice ([1]; 100 μM via drinking water, approximately 6-8 months): reduces tumour growth and metastasis
prostate cancer progression in the TRAMP mouse model [1]: inhibited
regrowth of tumor after removal of treatment ([2]; 28 days without treatment after 28 day therapy, mice receiving the two highest doses): no regrowth of tumor
growth of established FaDu xenografts (tumor growth) ([2]; NOD-SCID mice, 9 or 21 mg/kg in drinking water or 5 mg/kg daily i.p., from day 5, versus controls): significantly slower than in controls; also recorded: significantly delays the growth
